In patent US20100087475A1, “PHARMACEUTICAL COMPOUNDS” (Biovali Laboratories International (Barbados) S.R.L., priority 2008, published 2010):

Tests used:
VMAT-2 = target: T1, VMAT-2 (Rattus norvegicus, UniProt Q01827); test: [3H] Dihydrotetrabenazine binding assay for VMAT-2 (Assay B); conditions: [3H] dihydrotetrabenazine 5 nM, rat brain homogenate, competition binding
T1 construct: from tissue; host or cells: rat brain, 6 mm coronal slice incorporating the striatum, homogenate
Excerpt: Screen for VMAT-2 binding activity using a [^3H] Dihydrotetrabenazine binding Assay
Dihydrotetrabenazine is a very potent and selective inhibitor of VMAT-2, and binds with high affinity (nM range) to this vesicular transporter. [^3H] Dihydrotetrabenazine has been successfully used for many years as a radioligand to label VMAT-2 in human, bovine and rodent brain (e.g. Scherman et al. J. Neurochem. 50, 1131-1136 (1988); Near et al. Mol. Pharmacol. 30, 252-257 (1986); Kilbourn et al. Eur. J. Pharmacol. 278, 249-252 (1995); and Zucker et al. Life Sci. 69, 2311-2317 (2001)).
Charles River CD-1 rats were euthanized by decapitation and the brains dissected free and placed in ice cold PBS. The chilled brain was placed in a coronal brain matrix (Activational Systems, Inc) with 1 mm intervals. Single edge razor blades were inserted such that a 6 mm slice incorporating the striatum was removed. The tissue was weighed and placed in an ice-cold hand homogenizer, 10 volumes of KBS-EDTA (137 mM KCl, 3 mM NaCl, 8 mM K2HPO4, 1.5 mM NaH2PO4, 1 mM EDTA, pH 8.0) were added and the tissue homogenized with 10 strokes (maintaining on ice). Aliquots were placed into 500 μl microfuge tubes and then stored at −80° C. for later assays. A fresh aliquot was taken for protein assay. Protein concentrations were determined using BCA Protein Assay (Pierce Chemical) with bovine serum albumin as the standard. For VMAT2 assay, aliquots were thawed and placed on ice, and diluted with KBS-EDTA for a final protein concentration of 1 mg/ml.
Whatman GF/C filters (Acros) were presoaked with PBS/0.1% polyethylenimine at room temperature and then placed on a 48 place cell harvester (Brandel). Harvester was loaded with labeled tubes (12×75 mm) in the test tube rack. Into the tubes were placed 10 μl of the compound dilutions to their respective triplicate tubes and 1 μl of 10 mM TBZ added to the tubes used for non-specific binding measurements. Into each tube was then placed 0.5 ml of a 10 nM [^3H] dihydrotetrabenazine (DTBZ) dilution (American Radiolabeled Chemicals) in KBS-EDTA, the tubes were vortexed, and then 0.5 ml of the 1 mg/ml rat forebrain tissue homogenate solution was added into all tubes. Each tube was vortexed briefly and then incubated at room temperature for 30 minute.
Final concentrations of samples were 500 μg protein, 5 nM [3H]DTBZ; 10 μM TBZ (for nonspecific tubes) in 1 ml total volume. […] Filter circles were placed in scintillation vials and 10 ml of Universol (ICN) was added, samples incubated overnight and then counted on a Packard Tri-Carb 1600 scintillation counter.
Competition binding isotherms were analyzed with the use of computer-assisted nonlinear curve-fitting (LIGAND program) using both one and two site models.

Dopamine D2S Receptor = target: T2, Dopamine D2S Receptor (Homo sapiens, UniProt P14416); test: Radioligand binding, [3H] Spiperone; conditions: compound at 10 μM
T2 construct: expressed in transfected cells; host or cells: CHO cells
T2 sequence (P14416 1-414 isoform P14416-2): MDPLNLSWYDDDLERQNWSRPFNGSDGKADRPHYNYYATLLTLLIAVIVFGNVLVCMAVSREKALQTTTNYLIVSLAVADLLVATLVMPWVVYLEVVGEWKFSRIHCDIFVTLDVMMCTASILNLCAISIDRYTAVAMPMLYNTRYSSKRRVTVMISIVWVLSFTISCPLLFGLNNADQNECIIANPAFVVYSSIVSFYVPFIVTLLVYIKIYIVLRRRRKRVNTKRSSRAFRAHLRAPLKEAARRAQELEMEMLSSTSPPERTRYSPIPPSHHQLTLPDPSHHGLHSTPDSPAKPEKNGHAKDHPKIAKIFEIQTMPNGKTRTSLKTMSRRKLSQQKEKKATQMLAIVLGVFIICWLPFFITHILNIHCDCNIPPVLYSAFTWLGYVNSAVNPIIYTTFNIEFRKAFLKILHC
Description: (§1) Compounds of the invention were subjected to specific binding assays to test their ability to bind to the receptors and transporter proteins described below.
(f) Dopamine D2S Receptor:
• Reference: Grandy et al., Proc. Natl. Acad. Sci. USA, 86:9762-9766 (1989) • Source: Human recombinant CHO cells • Ligand: 0.16 nM [^3H]

Dopamine D4.4 Receptor = target: T3, Dopamine D4.4 Receptor (Homo sapiens, UniProt P21917); test: Radioligand binding, [3H] Spiperone; conditions: compound at 10 μM
T3 construct: expressed in transfected cells; host or cells: CHO-K1 cells
T3 sequence (P21917 1-419): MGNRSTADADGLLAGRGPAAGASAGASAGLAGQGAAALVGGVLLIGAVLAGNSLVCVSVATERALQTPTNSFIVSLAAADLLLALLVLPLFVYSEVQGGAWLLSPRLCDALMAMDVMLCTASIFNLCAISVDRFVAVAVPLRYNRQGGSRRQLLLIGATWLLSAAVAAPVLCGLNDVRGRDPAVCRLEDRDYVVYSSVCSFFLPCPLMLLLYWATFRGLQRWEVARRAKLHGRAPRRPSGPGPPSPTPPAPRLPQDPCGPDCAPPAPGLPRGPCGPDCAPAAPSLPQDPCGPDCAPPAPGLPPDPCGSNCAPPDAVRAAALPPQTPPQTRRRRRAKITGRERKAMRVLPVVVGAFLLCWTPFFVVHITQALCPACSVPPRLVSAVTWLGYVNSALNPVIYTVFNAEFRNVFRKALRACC
Description: as §1
(i) Dopamine D4.4 Receptor:
• Reference: Van Tol et al., Nature, 350:610-614 (1991) • Source: Human recombinant CHO-K1 cells • Ligand: 1.2 nM [^3H]

Dopamine D4.7 Receptor = test: Radioligand binding, [3H] Spiperone; design: species or system Human; conditions: compound at 10 μM
Description: as §1
(j) Dopamine D4.7 Receptor:
• Reference: Van Tol et al., Nature, 350:610-614 (1991) • Source: Human recombinant CHO-K1 cells • Ligand: 1.5 nM [^3H]

[1] = system: Imidazoline I2 (Peripheral) Receptor; test: Radioligand binding, [3H] Idazoxan, kidney; design: species or system Wistar rat; conditions: compound at 10 μM
Description: as §1
(I) Imidazoline I2 (Peripheral) Receptor:
• Reference: Brown et al., Brit. J. Pharmacol., 99:803-809, (1990) • Source: Wistar rat kidney • Ligand: 5 nM [^3H]

Sigma σ1 Receptor = target: T4, Sigma σ1 Receptor (Homo sapiens, UniProt Q99720); test: Radioligand binding, [3H] Haloperidol, jurkat cells; conditions: compound at 10 μM
T4 construct: Source: Human jurkat cells; endogenous in cells; host or cells: Jurkat cells
T4 sequence (Q99720 whole entry): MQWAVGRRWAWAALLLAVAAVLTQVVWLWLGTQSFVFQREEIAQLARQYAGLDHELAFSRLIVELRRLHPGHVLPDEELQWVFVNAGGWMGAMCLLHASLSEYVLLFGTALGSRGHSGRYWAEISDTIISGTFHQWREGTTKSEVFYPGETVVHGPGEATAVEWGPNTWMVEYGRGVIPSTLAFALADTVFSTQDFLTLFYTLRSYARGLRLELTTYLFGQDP
Description: as §1
• Reference: Ganaphthy et al., Pharmacol. Exp. Ther., 289:251-260, (1999) • Source: Human jurkat cells • Ligand: 8 nM [3H]

T1 sequence (Q01827 whole entry): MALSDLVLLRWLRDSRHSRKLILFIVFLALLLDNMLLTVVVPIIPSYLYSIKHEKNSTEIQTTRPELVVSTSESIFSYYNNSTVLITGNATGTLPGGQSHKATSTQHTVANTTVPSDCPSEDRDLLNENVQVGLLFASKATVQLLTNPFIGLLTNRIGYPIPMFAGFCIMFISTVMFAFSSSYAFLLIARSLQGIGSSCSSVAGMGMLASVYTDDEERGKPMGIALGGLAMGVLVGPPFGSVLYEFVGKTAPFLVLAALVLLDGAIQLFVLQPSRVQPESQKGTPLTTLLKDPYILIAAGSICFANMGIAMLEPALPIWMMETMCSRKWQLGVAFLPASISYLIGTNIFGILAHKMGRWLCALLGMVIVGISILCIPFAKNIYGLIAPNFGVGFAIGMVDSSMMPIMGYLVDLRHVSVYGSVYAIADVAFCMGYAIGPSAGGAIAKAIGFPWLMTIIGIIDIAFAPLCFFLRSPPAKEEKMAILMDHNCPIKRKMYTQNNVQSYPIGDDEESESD

Row | Compound | Bmax (VMAT-2) [fmol/µg] | Ki (VMAT-2) [nM] | % inhibition, (f) D2S Receptor (Dopamine D2S Receptor) [%] | % inhibition, (i) D4.4 Receptor (Dopamine D4.4 Receptor) [%] | % inhibition, (j) D4.7 Receptor (Dopamine D4.7 Receptor) [%] | % inhibition, (l) I2 Receptor (peripheral) [1] [%] | % inhibition, (m) σ1 Receptor (Sigma σ1 Receptor) [%]
1 | COc1cc2c(cc1O)[C@@H]1C[C@@H](O)[C@H](CC(C)C)CN1CC2 (single isomer, unassigned) [(+)-10-desmethyl-γ-dihydrotetrabenazine] | 0.174 ± 0.035 | 451 | 63 | 33 | 25 | 24 | 83
2 | COc1cc2c(cc1O)[C@@H]1C[C@@H](O)[C@H](CC(C)C)CN1CC2 (single isomer, unassigned) [(−)-10-desmethyl-γ-dihydrotetrabenazine] | 0.101 ± 0.009 | 1.82 | 98 | 81 | 87 | 25 | 55
